Measurements taken from US12473295B2, “Substituted straight chain spiro derivatives” (Janssen Pharmaceutica NV, priority 2019, dated 2025).
Where a name gives a salt, the structure may show the parent alone. Read-outs that look alike come from different tables or passages of the source.

What was measured:
MOLM14 cells = experiment: Proliferation assay (spheroid growth, 8 days), MOLM14; format: cell-based, human; settings: MOLM14, 8 days, read-out: spheroid assay_OneTime MOLM14 IC50;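 note: spheroid size read as confluence by live-cell imaging, compounds added at a range of concentrations with 0.3% DMSO, DMSO-treated wells = 0%, highest reference dose = low control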
OCI-AML3 cells = experiment: Proliferation assay (spheroid growth, 8 days), OCI-AML3; format: cell-based, human; settings: OCI-AML3, 8 days
How it was run: (§1)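 200 MOLM14 (MLL-AF9), 200 OCI-AML3 (NPM1c) or 300 KO-52 (MLL wildtype) cells were grown as spheroids in ultra-low attachment wells with compound, 0.3% DMSO, for 8 days at 37 °C. Confluence was imaged on day 8, normalized to DMSO and top-dose reference compound. IC50 came from a variable-slope fit constrained 0–100%.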

KO-52 cells = experiment: Proliferation assay (spheroid growth, 8 days), KO-52 control cell line; format: cell-based, human; settings: read-out: spheroid assay_OneTime KO-52 IC50
How it was run: as §1

MEIS1 mRNA = MEIS1 mRNA expression assay (Quantigene Singleplex) in MOLM14 cells; format: cell-based, human; settings: 48 hours incubation;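 note: MEIS1 transcript levels read by probe hybridization and normalized to RPL28 mRNA, with IC50 fitted to fold changes across a rising compound concentration series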
hERG potassium channel = hERG potassium channel (Homo sapiens (Human), UniProt Q12809); experiment: Effect on membrane potassium current IKr in hERG transfected CHO cells, Protocol 1 (QPatch); format: cell-based
Description: 8) Effect on the Membrane Potassium Current IKr in hERG Transfected Cell Lines
• CHO Chinese hamster ovary cell line • DMSO Dimethylsulfoxide • hERG human ether-á-go-go-related gene • IKr rapidly activating delayed-rectifier K^+ current Methods
Experiments were performed using CHO cells stably expressing the hERG potassium channel. Cells were grown at 37° C. and 5% CO2 in culture flasks in Ham's F12 Medium supplemented with 10% heat-inactivated fetal calf serum, hygromycin B (100 μg/ml) and geneticin (100 μg/ml). For use in the automated patch-clamp system QPatch (Sophion) cells were harvested to obtain cell suspension of single cells.
Solutions: The bath solution contained (in mM) 145 NaCl, 4 KCl, 10 glucose, 10 HEPES ((4-(2-hydroxyethyl)-1-piperazineethanesulfonic acid), 2 CaCl2 and 1 MgCl2 (pH 7.4 with NaOH). The pipette solution contained (in mM) 120 KCl, 10 EGTA (Ethylene glycol-bis(2-aminoethylether)-N,N,N′,N′-tetraacetic acid), 10 HEPES, 5.374 CaCl2 and 1.75 MgCl2 (pH 7.2 with KOH).
Patch-clamp experiments were performed in the voltage-clamp mode and whole-cell currents were recorded with an automated patch-clamp assay utilizing the QPatch system (Sophion). Current signals were amplified and digitized, stored and analyzed by using the QPatch assay software.
The holding potential was −80 mV. The hERG current (K^+-selective outward current) was determined as the maximal tail current at −40 mV after a 2 second depolarization to +60 mV. Pulse cycling rate was 15 s. A short pulse (90 ms) to −40 mV served as a baseline step to calculate the tail current amplitude. After establishing whole-cell configuration and a stability period, the solvent control (0.3% DMSO) was applied for 5 minutes followed by the test substance by four increasing concentrations of 3×10^−7 M, 3×10^−6 M, 10^−5 M and 3×10^−5 M. Each concentration of the test substance was applied twice. The effect of each concentration was determined after 5 min as an average current of 3 sequential voltage pulses. To determine the extent of block the residual current was compared with vehicle pre-treatment.
Concentration/response relations were calculated by non-linear least-squares fits to the individual data points. The half-maximal inhibiting concentration (IC50) was calculated by the fitting routine.

[1] = target: menin/MLL (terbium chelate-labeled menin, FITC-MBM1 peptide) (Homo sapiens (Human), UniProt O00255); experiment: Menin/MLL homogenous time-resolved fluorescence (HTRF) assay; format: binding; settings: HTRF-30 min incubation IC50, 30 min incubation;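 note: IC50 from percent inhibition of HTRF signal, normalized between wells without competitor and wells with a saturating competitor that displaces FITC-MBM1 from His-tagged menin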
iCell Cardiomyocytes2 = experiment: Ca2+-fluorescence assay in human pluripotent stem cell-derived cardiomyocytes (CTCM human), iCell Cardiomyocytes2; format: cell-based; design: key: Green: No concern; Yellow: Low concern; Red: High concern; Black: Very high concern due to arrhythmic events; settings: 30 min; for Color @ 0.1 μM (hazard score): iCell Cardiomyocytes2, 0.1 μM; for Color @ 0.1 μM (hazard score) / Color @ 1 μM (hazard score): range 0.1-30 μM; for Color @ 0.3 μM (hazard score): iCell Cardiomyocytes2, 0.3 μM; for Color @ 1 μM (hazard score): iCell Cardiomyocytes2, 1 μM; for Color @ 3 μM (hazard score): iCell Cardiomyocytes2, 3 μM; for Color @ 10 μM (hazard score): iCell Cardiomyocytes2, 10 μM; for Color @ 30 μM (hazard score): iCell Cardiomyocytes2, 30 μM
Description: 7) Cardio-Electrophysiological Effects of the Testing Compounds in Synchronously Beating Human Pluripotent Stem Cell-Derived Cardiomyocytes (hSC-CMs) Using a Ca^2+-Fluorescence Assay (CTCM Human)
Compounds were tested in the 96-well plates
Compounds were tested at 0.1 μM, 0.2 μM, 0.5 μM, 1 μM, 2.5 μM and 5 μM (n=4 per dose) on Cor.4U 9-Cardiomyocytes or on iCell® Cardiomyocytes2
Alternatively, compounds were tested at 0.1 μM, 0.3 μM; 1 μM, 3 μM, 10 μM and 30 μM (n=4 per dose) mostly on iCell® Cardiomyocytes2
Dimethylsulfoxide (DMSO). The solutions of the compound in DMSO or its solvent (final concentration of 0.1% DMSO; n=8)
Preparation of Test Article and Controls
Tested compounds were dissolved in DMSO at 1000-fold the intended concentrations. A compound “mother-plate” was made, containing the test compounds and positive and negative controls at 1000-fold the final concentrations. At the experiment day, these stock solutions were diluted with Tyrode (Sigma), supplemented with 10 mM HEPES (Gibco), to 2-fold the intended concentration (in round bottom compound plates). Final DMSO concentration in test solutions and vehicle control was 0.1%.
Second line hSC derived cardiomyocyte called iCell®, Cardiomyocytes2 were purchased from FUJIFILM Cellular Dynamics (USA). The experiments with test drugs are carried out 5 to 7 days after plating the cells onto the plate to have a living, beating monolayer of hiPSC-derived cardiomyocytes. The beating monolayer in 96-well-plates are normally taken from 2 Vials of frozen iCell) Cardiomyocytes2 (≈5 million cells/vial), which will be plated onto […] 96-well plates (≈50K/well).
Before Start of Experiment
At least one hour before the start of the experiments the normal cell medium was replaced with Tyrode solution with Calcium dye (see below).
Cal 520 dye (AAT Bioquest) was dissolved in 11 ml of Tyrode supplemented with 10 mM HEPES and warmed up to 37° C. before adding to the cells.
35 μl cell culture medium was removed from each well and replaced with 35 μl of pre-warmed Cal 520 dye solution and cell plate was incubated for 45 min at 37° C./5% CO2. Cells were incubated for 5 min at 37° C.
Spontaneous electrical activity is recorded, using Cal520™ (AAT Bioquest) calcium fluorescence-dye signaling. This dye integrates the total intracellular calcium activity over the whole well. A bottle of Cal520 dye (50 μg, MW: 1103/mol) is dissolved with 50 μl DMSO as a stock solution of 0.9 mM. 50 μL of the stock solution of the dye was added to 10 ml Tryodes solution to have dye concentration of 4.5 μM. Subsequently, 35 μl of this dye solution was added into each well, to have a final dye concentration of 1.58 μM. The current dye protocol on this CTCM human assay was established recently (Ivan Kopljar et al, Journal of Pharmacological and toxicological methods 2018. 91: 80-86; Lu et al., Tox Sci 2019. 170 (2): 345-356).
Fluorescent signals (Ca^2+ transient morphology) were measured using the Functional Drug Screen System (FDSS/μCell; Hamamatsu, Japan) and the recordings were subsequently analyzed off-line, using appropriate software e.g. Notocord.
The cell plate was loaded into the FDSS/μCell for a test run: Ca^2+ transients were measured for 4 minutes to check for synchronous beating of the cardiomyocytes in each well. All 96 wells were measured simultaneously (sampling interval: 0.06 s, short exposure time: 10 ms; excitation wavelength 480 nm; emission wavelength 540 nm; FDSS/μCell warmed to 37° C.).
During the compound addition step, 100 μl of the respective double-concentrated test solutions was pipetted into each well simultaneously.
Data were analyzed off-line using appropriate software e.g. Notocord-Hem (version 4.3).
The following parameters of the Ca^2′ transient morphology were measured: • beat rate (BR) • amplitude of the Ca^2+ transient (Amp), • CTD90: Ca^2+ transient duration at 90% (time to 90% of the initial base value). […]

hERG potassium channel, sequence (Q12809 whole entry): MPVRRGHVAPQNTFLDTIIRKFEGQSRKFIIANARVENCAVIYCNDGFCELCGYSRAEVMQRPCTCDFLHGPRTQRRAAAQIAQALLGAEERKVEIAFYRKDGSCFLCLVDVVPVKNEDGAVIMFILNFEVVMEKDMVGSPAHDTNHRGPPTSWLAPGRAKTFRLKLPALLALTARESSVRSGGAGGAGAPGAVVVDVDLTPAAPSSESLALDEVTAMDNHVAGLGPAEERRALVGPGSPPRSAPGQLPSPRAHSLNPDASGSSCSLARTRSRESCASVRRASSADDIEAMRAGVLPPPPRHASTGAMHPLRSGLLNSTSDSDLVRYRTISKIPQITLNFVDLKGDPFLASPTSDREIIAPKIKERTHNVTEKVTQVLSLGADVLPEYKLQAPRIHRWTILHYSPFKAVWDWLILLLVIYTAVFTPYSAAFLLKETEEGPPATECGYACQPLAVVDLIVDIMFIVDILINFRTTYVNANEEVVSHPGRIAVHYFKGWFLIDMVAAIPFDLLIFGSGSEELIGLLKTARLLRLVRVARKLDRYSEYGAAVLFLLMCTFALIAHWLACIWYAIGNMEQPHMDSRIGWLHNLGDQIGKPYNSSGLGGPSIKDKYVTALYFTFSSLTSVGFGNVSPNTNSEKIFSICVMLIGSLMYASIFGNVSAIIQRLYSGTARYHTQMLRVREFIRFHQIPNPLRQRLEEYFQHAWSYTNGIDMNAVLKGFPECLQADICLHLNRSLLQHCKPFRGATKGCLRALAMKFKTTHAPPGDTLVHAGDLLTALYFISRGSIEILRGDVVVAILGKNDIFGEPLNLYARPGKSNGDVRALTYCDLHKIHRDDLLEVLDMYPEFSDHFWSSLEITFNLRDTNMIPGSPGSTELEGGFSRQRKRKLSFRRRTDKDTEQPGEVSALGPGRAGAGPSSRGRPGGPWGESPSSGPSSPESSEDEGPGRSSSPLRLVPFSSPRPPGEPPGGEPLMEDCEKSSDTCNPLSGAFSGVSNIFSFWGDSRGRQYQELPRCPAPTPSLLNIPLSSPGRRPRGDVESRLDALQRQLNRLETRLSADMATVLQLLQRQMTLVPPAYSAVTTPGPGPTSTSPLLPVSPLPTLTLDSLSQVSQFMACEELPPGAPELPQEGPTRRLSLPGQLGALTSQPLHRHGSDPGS
menin/MLL (terbium chelate-labeled menin, FITC-MBM1 peptide), sequence (O00255 other isoform, or with tags, fused parts or gaps): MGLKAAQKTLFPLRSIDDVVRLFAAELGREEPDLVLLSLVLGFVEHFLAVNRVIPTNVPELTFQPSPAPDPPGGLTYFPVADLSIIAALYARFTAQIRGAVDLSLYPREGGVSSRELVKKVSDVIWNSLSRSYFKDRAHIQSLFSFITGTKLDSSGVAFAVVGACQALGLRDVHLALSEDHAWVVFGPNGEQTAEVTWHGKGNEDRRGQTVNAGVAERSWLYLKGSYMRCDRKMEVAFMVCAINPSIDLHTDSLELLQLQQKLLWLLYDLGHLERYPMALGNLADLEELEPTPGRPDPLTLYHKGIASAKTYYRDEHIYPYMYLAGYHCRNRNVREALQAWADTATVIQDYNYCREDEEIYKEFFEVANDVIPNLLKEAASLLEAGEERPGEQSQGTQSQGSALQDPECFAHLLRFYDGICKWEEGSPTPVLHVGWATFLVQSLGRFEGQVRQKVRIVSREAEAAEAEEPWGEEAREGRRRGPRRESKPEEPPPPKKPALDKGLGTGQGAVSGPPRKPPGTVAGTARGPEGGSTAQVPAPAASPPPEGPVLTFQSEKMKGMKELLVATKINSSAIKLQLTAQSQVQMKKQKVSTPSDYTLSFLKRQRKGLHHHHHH

SMILES	IC50 (MOLM14 cells; Homo sapiens, MOLM-14, […]) [nM]	IC50 (OCI-AML3 cells; Homo sapiens, OCI-AML-3, […]) [nM]	IC50 (MEIS1 mRNA; Homo sapiens, MOLM-14, 48 h) [nM]	IC50 [1] [nM]	IC50 (MOLM14 cells) [nM]	IC50 (OCI-AML3 cells) [nM]	IC50 (MEIS1 mRNA) [nM]	IC50 (KO-52 cells; Homo sapiens, […]) [nM]	IC50 (hERG potassium channel) [nM]	Color @ 0.1 μM (hazard score) (iCell Cardiomyocytes2)	Color @ 0.3 μM (hazard score) (iCell Cardiomyocytes2)	Color @ 1 μM (hazard score) (iCell Cardiomyocytes2)	Color @ 3 μM (hazard score) (iCell Cardiomyocytes2)	Color @ 10 μM (hazard score) (iCell Cardiomyocytes2)	Color @ 30 μM (hazard score) (iCell Cardiomyocytes2)	IC50 (KO-52 cells) [nM]
CCN(C(=O)c1cc(F)ccc1Oc1nncnc1N1CCC2(C1)CN([C@H](CCCN(C)CC(=O)N(C)C)C(C)C)C2)C(C)C [Compound 23]	170	810	150	0.22	–	–	–	13800	> 30200	–	–	–	–	–	–	–
CCN(C(=O)c1cc(F)ccc1Oc1nncnc1N1CCC2(C1)CN([C@H](CCCN(C)C(=O)OC)C(C)C)C2)C(C)C [Compound 22, methyl (R)-(4-(6-(6-(2-(ethyl(isopropyl)carbamoyl)-4-fluorophenoxy)-1,2,4-triazin-5-yl)-2,6-diazaspiro[3.4]octan-2-yl)-5-methylhexyl)(methyl)carbamate]	360	–	~760	1.79	–	–	–	12800	20900	–	–	–	–	–	–	–
CCN(C(=O)c1cc(F)ccc1Oc1nncnc1N1CCC2(C1)CN([C@H](CCCN(C)C(=O)OC(C)OC(=O)C(C)C)C(C)C)C2)C(C)C (stereo partly drawn) [Compound 40, 1-((((R)-4-(6-(6-(2-(ethyl(isopropyl)carbamoyl)-4-fluorophenoxy)-1,2,4-triazin-5-yl)-2,6-diazaspiro[3.4]octan-2-yl)-5-methylhexyl)(methyl)carbamoyl)oxy)ethyl isobutyrate]	19	74	19	0.4	–	–	–	9540	5000	–	–	–	–	–	–	–
CCN(C(=O)c1cc(F)ccc1Oc1nncnc1N1CCC2(C1)CN(C(CCCO)C(C)C)C2)C(C)C (stereo not drawn) [Compound 49, N-ethyl-5-fluoro-2-((5-(2-(6-hydroxy-2-methylhexan-3-yl)-2,6-diazaspiro[3.4]octan-6-yl)-1,2,4-triazin-6-yl)oxy)-N-isopropylbenzamide]	–	–	–	–	–	–	–	–	> 30200	–	–	–	–	–	–	–
CCN(C(=O)c1cc(F)ccc1Oc1nncnc1N1CCC2(C1)CN([C@H](CCCN(C)CCOC)C(C)C)C2)C(C)C [Compound 70a]	–	–	–	–	–	–	–	–	–	Green	Green	Green	Green	Green	yellow	–

Now from value to compound, other results behind:

IC50 (MOLM14 cells; Homo sapiens, MOLM-14, […]) [nM]	IC50 (OCI-AML3 cells; Homo sapiens, OCI-AML-3, […]) [nM]	IC50 (MEIS1 mRNA; Homo sapiens, MOLM-14, 48 h) [nM]	IC50 [1] [nM]	IC50 (MOLM14 cells) [nM]	IC50 (OCI-AML3 cells) [nM]	IC50 (MEIS1 mRNA) [nM]	SMILES	IC50 (KO-52 cells; Homo sapiens, […]) [nM]	IC50 (hERG potassium channel) [nM]	Color @ 0.1 μM (hazard score) (iCell Cardiomyocytes2)	Color @ 0.3 μM (hazard score) (iCell Cardiomyocytes2)	Color @ 1 μM (hazard score) (iCell Cardiomyocytes2)	Color @ 3 μM (hazard score) (iCell Cardiomyocytes2)	Color @ 10 μM (hazard score) (iCell Cardiomyocytes2)	Color @ 30 μM (hazard score) (iCell Cardiomyocytes2)	IC50 (KO-52 cells) [nM]
10	96	8.2	0.12	–	–	–	COCCN(C)CCC[C@H](C(C)C)N1CC2(CCN(c3ncnnc3Oc3ccc(F)cc3C(=O)N(C(C)C)C(C)C)C2)C1 (single isomer, unassigned) [Compound 94, (*R)-5-fluoro-N,N-isopropyl-2-((5-(2-(6-((2-methoxyethyl)(methyl)amino)-methylhexan-3-yl)-2,6-diazaspiro[3.4]octan-6-yl)-1,2,4-triazin-6-yl)oxy)benzamide oxalate]	4750	30900	–	–	–	–	–	–	–
560	1470	380	–	–	–	–	CCN(CCC[C@H](C(C)C)N1CC2(CCN(c3ncnnc3Oc3ccc(F)cc3C(=O)N(CC)C(C)C)C2)C1)CCOC [Compound 71, (R)-N-ethyl-2-((5-(2-(6-(ethyl(2-methoxyethyl)amino)-2-methylhexan-3-yl)-2,6-diazaspiro[3.4]octan-6-yl)-1,2,4-triazin-6-yl)oxy)-5-fluoro-N-isopropylbenzamide]	12800	> 30200	–	–	–	–	–	–	–
64	220	–	–	–	–	–	CCN(C(=O)c1cc(F)ccc1Oc1nncnc1N1CCC2(C1)CN([C@H](CCCNC)C(C)C)C2)C(C)C [Compound 398, (R)-N-ethyl-5-fluoro-N-isopropyl-2-((5-(2-(2-methyl-6-(methylamino)hexan-3-yl)-2,6-diazaspiro[3.4]octan-6-yl)-1,2,4-triazin-6-yl)oxy)benzamide]	> 15000	–	Green	Green	Green	Green	Green	Green	–
–	–	–	–	76	290	96	CCN(C(=O)c1cc(F)ccc1Oc1nncnc1N1CCC2(C1)CN([C@H](CCCN(C)CCO)C(C)C)C2)C(C)C [Compound 286, (R)-N-ethyl-5-fluoro-2-((5-(2-(6-((2-hydroxyethyl)(methyl)amino)-2-methylhexan-3-yl)-2,6-diazaspiro[3.4]octan-6-yl)-1,2,4-triazin-6-yl)oxy)-N-isopropylbenzamide]	–	–	Green	Green	Green	Green	Green	Green	22900
